{"source": "patent US20140105891A1", "about": "“TREATMENT OF CANCER” (CERULEAN PHARMA INC., priority 2012, published 2014)", "key": {"[1]": {"tested_on": "H1299 human NSCLC xenograft", "test": "H1299 NSCLC xenograft tumor growth delay", "conditions": "for median tumor volume (MTV) of survivors: D74 survivors, Gemcitabine 120 mg/kg; for tumor-free survival (TFS): CRLX101 10 mg/kg qwk×3, marketed drugs on optimal preclinical regimens", "procedure": "H1299 cells were obtained from the American Type Culture Collection (ATCC), and the tumor line was maintained by serial engraftment in nude mice.\nBody weight was measured daily on Days 1-5, then twice weekly until the completion of the study. Tumor volume was measured twice weekly and each animal was euthanized when the calculated tumor volume reached the 2000 mm^3 endpoint, or on day-88 post implantation, whichever came first."}, "[2]": {"tested_on": "A2780 Ovarian Xenograft Tumors", "test": "A2780 ovarian xenograft tumor growth / response rate", "type": "in vivo, mouse", "conditions": "A2780, Day 42; CRLX101 5 mg/kg IV q7d×3; Bevacizumab 5 mg/kg i.p. biweekly×3; combination at same doses"}, "[3]": {"tested_on": "HIF-2α", "test": "HIF-2α levels in A2780 xenograft after CRLX101 and Bevacizumab (Western blot)", "type": "in vivo, mouse", "conditions": "CRLX101 5 mg/kg i.v. q7d×2, Bevacizumab 5 mg/kg i.p. Day 1, 4, 8, tumors Day 11", "procedure": "(§1) Tumor samples were collected on Day 11, 72 hours after the last treatment (Day 8 for both drugs) and analyzed for HIF-1α and HIF-2α levels using Western blot."}, "[4]": {"tested_on": "HIF-1α", "test": "HIF-1α levels in A2780 xenograft after CRLX101 and Bevacizumab (Western blot)", "type": "in vivo, mouse", "conditions": "CRLX101 5 mg/kg i.v. q7d×2, Bevacizumab 5 mg/kg i.p. Day 1, 4, 8, tumors Day 11", "procedure": "as §1"}}}
{"compound": "CC(=O)O[C@@]12CO[C@@H]1C[C@H](O)[C@@]1(C)C(=O)[C@H](O)C3=C(C)[C@@H](OC(=O)[C@H](O)[C@@H](NC(=O)OC(C)(C)C)c4ccccc4)C[C@@](O)([C@@H](OC(=O)c4ccccc4)[C@H]21)C3(C)C", "note": "[Docetaxel]", "values": [{"measurement": "survival", "setting": "[1]; 74 days post first treatment, docetaxel 30 mg/kg qwk×3", "result": 20, "unit": "%"}, {"measurement": "median tumor volume (MTV) of survivors", "setting": "[1]; Docetaxel 30 mg/kg", "result": 302, "unit": "mm3"}, {"measurement": "group mean body weight loss", "setting": "[1]; Docetaxel 30 mg/kg, on D21", "result": 9.3, "unit": "%"}]}
{"compound": "Nc1ccn([C@@H]2O[C@H](CO)[C@@H](O)C2(F)F)c(=O)n1", "note": "[Gemcitabine]", "values": [{"measurement": "tumor-free survival (TFS)", "setting": "[1]; 74 days post first treatment", "result": 50, "unit": "%"}, {"measurement": "median tumor volume (MTV) of survivors", "setting": "[1]; Docetaxel 30 mg/kg", "result": 0, "unit": "mm3"}]}
{"compound": "CC[C@@]1(O)C(=O)OCc2c1cc1n(c2=O)Cc2cc3c(CN(C)C)c(O)ccc3nc2-1", "note": "[Topotecan]", "values": [{"measurement": "tumor-free survival (TFS)", "setting": "[1]; 74 days post first treatment", "result": 10, "unit": "%"}]}
{"compound": "Bevacizumab: antibody against VEGF", "values": [{"measurement": "Partial Response (# of mice)", "setting": "[2]", "result": "0 of 10"}, {"measurement": "HIF-2α % of Control", "setting": "[3]", "result": "146 % of Control"}, {"measurement": "HIF-1α % of Control", "setting": "[4]", "result": "157 % of Control"}]}
